Structures can show the parent of a compound that is named as a salt.
Row | melting point [°C] | SMILES
1 | 123 | CCc1cccc(C(OC2CCN(C)CC2)c2nc3ccccc3s2)c1 (stereo not shown) (as salt: oxalate) [Example 152, 2-[(3-ethylphenyl)(1-methylpiperidin-4-yloxy)methyl]benzothiazole]
2 | 98 | CN1CCC(OC(c2cccc(OCc3cccc(F)c3F)c2)c2nc3ccccc3s2)CC1 (stereo not shown) (as salt: oxalate) [Example 161, 2-[[3-(2,3-difluorobenzyloxy)phenyl](1-methylpiperidin-4-yloxy)methyl]benzothiazole]
3 | 147 | CN1CCC(OC(c2cccc(OCCF)c2)c2nc3ccccc3s2)CC1 (stereo not shown) (as salt: oxalate) [Example 163, 2-[[3-(2-fluoroethoxy)phenyl](1-methylpiperidin-4-yloxy)methyl]benzothiazole]
4 | 75 | C=CCCCOc1cccc(C(OC2CCN(C)CC2)c2nc3ccccc3s2)c1 (stereo not shown) (as salt: oxalate) [Example 168, 2-[(1-methylpiperidin-4-yloxy)(3-pent-4-enyloxy-phenyl)methyl]benzothiazole]
5 | 65 | CN1CCC(OC(c2cccc(OCc3cccc(F)c3)c2)c2nc3ccccc3s2)CC1 (stereo not shown) (as salt: oxalate) [Example 171, 2-[[3-(3-fluorobenzyloxy)phenyl](1-methylpiperidin-4-yloxy)methyl]benzothiazole]
6 | 120 | CN1CCC(NC(c2cccc(OCCCC3(C)OCCO3)c2)c2nc3ccccc3[nH]2)CC1 (stereo not shown) (as salt: oxalate) [Example 174, ((1H-benzimidazol-2-yl)-{3-[3-(2-methyl-[1,3]dioxolan-2-yl)-propoxy]phenyl}methyl)(1-methylpiperidin-4-yl)amine]
7 | 72 | CN1CCC(OC(c2cccc(OCCCF)c2)c2nc3ccccc3s2)CC1 (stereo not shown) (as salt: oxalate) [Example 176, 2-[[3-(3-fluoropropoxy)phenyl](1-methylpiperidin-4-yloxy)methyl]benzothiazole]
8 | 155 | CN1CCC(NC(c2cccc(OCCF)c2)c2nc3ccccc3[nH]2)CC1 (stereo not shown) (as salt: oxalate) [Example 180, {(1H-benzimidazol-2-yl)[3-(2-fluoro-ethoxy)phenyl]methyl}(1-methylpiperidin-4-yl)amine]
9 | 123 | CN1CCC(NC(c2cccc(OCCC3=CCC4CC3C4(C)C)c2)c2nc3ccccc3[nH]2)CC1 (stereo not shown) (as salt: oxalate) [Example 181, ((1H-benzimidazol-2-yl)-{3-[2-(6,6-dimethyl-bicyclo[3.1.1]hept-2-en-2-yl)ethoxy]phenyl}methyl)(1-methylpiperidin-4-yl)amine]
10 | 77 | COc1cccc(COc2cccc(C(OC3CCN(C)CC3)c3nc4ccccc4s3)c2)c1 (stereo not shown) (as salt: oxalate) [Example 185, 2-[[3-(3-methoxybenzyloxy)phenyl](1-methylpiperidin-4-yloxy)methyl]benzothiazole]
11 | 72 | CC(=O)CCCOc1cccc(C(OC2CCN(C)CC2)c2nc3ccccc3s2)c1 (stereo not shown) (as salt: oxalate) [Example 186, 5-{3-[benzothiazol-2-yl(1-methylpiperidin-4-yloxy)methyl]phenoxy}pentan-2-one]
12 | 80 | CN1CCC(OC(c2cccc(OCc3cccc(C(F)(F)F)c3)c2)c2nc3ccccc3s2)CC1 (stereo not shown) (as salt: oxalate) [Example 187, 2-{(1-methylpiperidin-4-yloxy)[3-(3-trifluoromethyl-benzyloxy)phenyl]methyl}benzothiazole]
13 | 75 | CN1CCC(OC(c2cccc(C#N)c2)c2nc3ccccc3s2)CC1 (stereo not shown) (as salt: oxalate) [Example 197, 3-[benzothiazol-2-yl(1-methylpiperidin-4-yloxy)methyl]benzonitrile]
14 | 93 | COC(=O)c1cccc(C(OC2CCN(C)CC2)c2nc3ccccc3s2)c1 (stereo not shown) (as salt: oxalate) [Example 199, 3-[benzothiazol-2-yl(1-methylpiperidin-4-yloxy)methyl]benzoic acid methyl ester]
15 | 104 | CCOC(=O)c1cccc(C(OC2CCN(C)CC2)c2nc3ccccc3s2)c1 (stereo not shown) (as salt: oxalate) [Example 206, 3-[benzothiazol-2-yl(1-methylpiperidin-4-yloxy)methyl]benzoic acid ethyl ester]
16 | 130 | COc1ccc(-c2cccc(C(NC3CCN(C)CC3)c3nc4ccccc4s3)c2)cc1 (stereo not shown) (as salt: oxalate) [Example 211, [benzothiazol-2-yl(4′-methoxybiphenyl-3-yl)methyl](1-methylpiperidin-4-yl)amine]
17 | 96 | Cc1ccc(C(OC2CCN(C)CC2)c2nc3ccccc3[nH]2)c(Cl)c1 (stereo not shown) (as salt: oxalate) [Example 213, 2-[(2-chloro-4-methylphenyl)(1-methylpiperidin-4-yloxy)methyl]-1H-benzimidazole]
18 | 103 | CN1CCC(OC(c2cccc(C(=O)N(C)Cc3ccccc3)c2)c2nc3ccccc3s2)CC1 (stereo not shown) (as salt: oxalate) [Example 219, 3-[benzothiazol-2-yl(1-methylpiperidin-4-yloxy)methyl]-N-benzyl-N-methylbenzamide]

Row | melting point [°C] | SMILES
19 | 106 | CN1CCC(OC(c2nc3ccccc3[nH]2)c2ccc(F)cc2F)CC1 (stereo not shown) (as salt: oxalate) [Example 221, 2-[(2,4-difluorophenyl)(1-methylpiperidin-4-yloxy)methyl]-1H-benzimidazole]
20 | 125 | CN1CCC(OC(c2cccc(C(=O)N(C)c3ccccc3)c2)c2nc3ccccc3s2)CC1 (stereo not shown) (as salt: oxalate) [Example 223, 3-[benzothiazol-2-yl(1-methylpiperidin-4-yloxy)methyl]-N-methyl-N-phenylbenzamide]
21 | 158 | CN1CCC(OC(c2cccc(Cl)c2)c2nc3ccccc3[nH]2)CC1 (stereo not shown) (as salt: oxalate) [Example 225, 2-[(3-chlorophenyl)(1-methylpiperidin-4-yloxy)methyl]-1H-benzimidazole]
22 | 175 | CN1CCC(OC(c2ccc(Cl)cc2)c2nc3ccccc3[nH]2)CC1 (stereo not shown) (as salt: oxalate) [Example 226, 2-[(4-chlorophenyl)(1-methylpiperidin-4-yloxy)methyl]-1H-benzimidazole]
23 | 80 | CN1CCC(OC(c2cccc(SC(C)(C)CCO)c2)c2nc3ccccc3s2)CC1 (stereo not shown) (as salt: oxalate) [Example 242, 3-{3-[benzothiazol-2-yl(1-methylpiperidin-4-yloxy)methyl]phenylsulfanyl}-3-methyl-butan-1-ol]
24 | 111 | CN1CCC(OC(c2cccc(N3CCOCC3)c2)c2nc3ccccc3s2)CC1 (stereo not shown) (as salt: oxalate) [Example 243, 2-[(1-methylpiperidin-4-yloxy)(3-morpholin-4-yl-phenyl)methyl]benzothiazole]
25 | 45 | CN1CCC(OC(c2cccc(OCCO)c2)c2nc3ccccc3s2)CC1 (stereo not shown) (as salt: oxalate) [Example 244, 2-{3-[benzothiazol-2-yl(1-methylpiperidin-4-yloxy)methyl]phenoxy}ethanol]
26 | 89 | CSCCOc1cccc(C(OC2CCN(C)CC2)c2nc3ccccc3s2)c1 (stereo not shown) (as salt: oxalate) [Example 250, 2-{(1-methylpiperidin-4-yloxy)[3-(2-methylsulfanyl-ethoxy)phenyl]methyl}benzothiazole]
27 | 79 | CN1CCC(OC(c2cccc(OCCCO)c2)c2nc3ccccc3s2)CC1 (stereo not shown) (as salt: oxalate) [Example 258, 3-{3-[benzothiazol-2-yl(1-methylpiperidin-4-yloxy)methyl]phenoxy}propan-1-ol]
28 | 101 | CN1CCC(OC(c2cccc(OCc3ccncc3)c2)c2nc3ccccc3s2)CC1 (stereo not shown) (as salt: oxalate) [Example 265, 2-{(1-methylpiperidin-4-yloxy)[3-(pyridin-4-ylmethoxy)phenyl]methyl}benzothiazole]
29 | 63 | CN1CCC(OC(c2cccc(OCCCCO)c2)c2nc3ccccc3s2)CC1 (stereo not shown) (as salt: oxalate) [Example 266, 4-{3-[benzothiazol-2-yl(1-methylpiperidin-4-yloxy)methyl]phenoxy}butan-1-ol]
30 | 85 | CN1CCC(OC(c2cccc(OCc3ccco3)c2)c2nc3ccccc3s2)CC1 (stereo not shown) (as salt: oxalate) [Example 267, 2-[[3-(furan-2-ylmethoxy)phenyl](1-methylpiperidin-4-yloxy)methyl]benzothiazole]
31 | 80 | CN1CCC(OC(c2cccc(SCCN)c2)c2nc3ccccc3s2)CC1 (stereo not shown) (as salt: oxalate) [Example 269, 2-{3-[benzothiazol-2-yl(1-methylpiperidin-4-yloxy)methyl]phenylsulfanyl}ethylamine]
32 | 142 | CCSc1cc(C(OC2CCN(C)CC2)c2nc3ccccc3[nH]2)ccc1C (stereo not shown) (as salt: oxalate) [Example 274, 2-[(3-ethylsulfanyl-4-methylphenyl)(1-methylpiperidin-4-yloxy)methyl]-1H-benzimidazole]
33 | 80 | COCCOc1cccc(C(OC2CCN(C)CC2)c2nc3ccccc3s2)c1 (stereo not shown) (as salt: oxalate) [Example 277, 2-[[3-(2-methoxyethoxy)phenyl](1-methylpiperidin-4-yloxy)methyl]benzothiazole]
34 | 125 | CNCCOc1cccc(C(OC2CCN(C)CC2)c2nc3ccccc3s2)c1 (stereo not shown) (as salt: oxalate) [Example 279, (2-{3-[benzothiazol-2-yl(1-methylpiperidin-4-yloxy)methyl]phenoxy}ethyl)methyl-amine]
35 | 172 | CN1CCC(OC(c2cccc(OC(F)(F)F)c2)c2nc3ccccc3[nH]2)CC1 (stereo not shown) (as salt: oxalate) [Example 280, 2-[(1-methylpiperidin-4-yloxy)(3-trifluoromethoxy-phenyl)methyl]-1H-benzimidazole]
36 | 163 | CN1CCC(OC(c2nc3ccccc3s2)c2ccccc2Cl)CC1 (stereo not shown) (as salt: oxalate) [Example 281, 2-[(2-Chlorophenyl)(1-methylpiperidin-4-yloxy)methyl]benzothiazole]

Row | SMILES | melting point [°C]
37 | CN1CCC(OC(c2cccc(OCCCC(F)(F)F)c2)c2nc3ccccc3s2)CC1 (stereo not shown) (as salt: oxalate) [Example 169, 2-{(1-methylpiperidin-4-yloxy)[3-(4,4,4-trifluoro-butoxy)phenyl]methyl}benzothiazole] | 115

Source: patent US8802664B2 (Bioproject, priority 2010, dated 2014)
